This is an account of results in ChEMBL document CHEMBL4028884, “Discovery, Development, and Cellular Delivery of Potent and Selective Bicyclic Peptide Inhibitors of Grb7 Cancer Target” (J Med Chem, 2017).

Assay [1] addresses Growth factor receptor-bound protein 7 (Homo sapiens) (UniProt Q14451). Description: Inhibition of GRB7-FAK interaction in human SKBR3 cells assessed as FAK detection in cell lysates at 20 uM preincubated for 1 hr followed by fibronectin stimulation measured after 10 mins by Western blot analysis. It is filed as cell-based.
The target is the same in assay [2]. As to the kind of experiment: Inhibition of GRB7-SHC interaction in human SKBR3 whole cells at 20 uM preincubated for 1 hr followed by fibronectin stimulation measured after 10 mins by Western blot analysis. It counts as cell-based. On the technique in general: A western blot detects proteins with antibodies after separation by electrophoresis.
The target is the same in assay [3]. As to the kind of experiment: Inhibition of GRB7-HER2 interaction in human SKBR3 cells assessed as HER2 detection in whole cells at 20 uM preincubated for 1 hr followed by fibronectin stimulation measured after 10 mins by Western blot analysis. It is filed as cell-based.
The target is the same in assay [4]. As to the kind of experiment: Inhibition of GRB7-FAK interaction in human SKBR3 cells assessed as FAK detection in whole cells at 20 uM preincubated for 1 hr followed by fibronectin stimulation measured after 10 mins by Western blot analysis. It counts as cell-based.
Assay [5] shares this target. Description: Inhibition of GRB7-HER2 interaction in human SKBR3 cells assessed as HER2 detection in cell lysates at 20 uM preincubated for 1 hr followed by fibronectin stimulation measured after 10 mins by Western blot analysis. It is filed as cell-based.
The target is the same in assay [6]. As to the kind of experiment: Inhibition of GRB7-SHC interaction in human SKBR3 cells assessed as SHC detection in cell lysates at 20 uM preincubated for 1 hr followed by fibronectin stimulation measured after 10 mins by Western blot analysis. It counts as cell-based.
The target of assay [7] is T1, Growth factor receptor-bound protein 10 (Homo sapiens) (UniProt Q13322).
T1 sequence (whole entry): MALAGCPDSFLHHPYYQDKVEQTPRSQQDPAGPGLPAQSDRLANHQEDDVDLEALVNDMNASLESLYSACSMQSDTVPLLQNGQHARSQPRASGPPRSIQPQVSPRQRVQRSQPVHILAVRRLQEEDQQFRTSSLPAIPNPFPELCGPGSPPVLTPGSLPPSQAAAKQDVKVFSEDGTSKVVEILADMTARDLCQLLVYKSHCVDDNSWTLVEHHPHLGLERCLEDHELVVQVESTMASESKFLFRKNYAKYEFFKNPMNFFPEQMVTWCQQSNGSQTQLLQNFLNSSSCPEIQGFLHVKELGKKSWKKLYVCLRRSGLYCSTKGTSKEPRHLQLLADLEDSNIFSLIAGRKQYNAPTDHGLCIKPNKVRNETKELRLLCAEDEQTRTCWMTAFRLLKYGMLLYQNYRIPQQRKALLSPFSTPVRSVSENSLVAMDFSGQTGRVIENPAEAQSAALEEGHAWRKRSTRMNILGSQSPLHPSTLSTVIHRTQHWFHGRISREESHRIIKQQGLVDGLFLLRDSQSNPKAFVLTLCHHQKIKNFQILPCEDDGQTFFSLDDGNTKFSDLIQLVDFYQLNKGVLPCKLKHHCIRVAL
Description: Binding affinity to human GST-tagged GRB10-SH2 domain (471 to 532 residues) expressed in Escherichia coli BL21(DE3) pLys after 60 to 80 secs in presence of 50 mM phosphate buffer by SPR assay. On the technique in general: SPR reads the build-up and loss of mass on a sensor chip optically.

Assay [8] has as its target T1, Growth factor receptor-bound protein 10 (Homo sapiens). Description: Binding affinity to human GST-tagged GRB10-SH2 domain (471 to 532 residues) expressed in Escherichia coli BL21(DE3) pLys after 60 to 80 secs in presence of 1 mM phosphate buffer by SPR assay.
The target in assay [9] is Growth factor receptor-bound protein 2 (Homo sapiens) (UniProt P62993). As to the kind of experiment: Binding affinity to human GST-tagged GRB2-SH2 domain expressed in Escherichia coli BL21(DE3) pLys after 60 to 80 secs in presence of 1 mM phosphate buffer by SPR assay.
For assay [10] the target is unchanged. Description: Binding affinity to human GST-tagged GRB2-SH2 domain expressed in Escherichia coli BL21(DE3) pLys after 60 to 80 secs in presence of 50 mM phosphate buffer by SPR assay.

Each structure is given as a SMILES string. Activity calls are given as the source filed them. No cut-off for these calls is given here. Where a SMILES comes first, the peptide text is derived from it. Bridges are numbered along the chain shown (N, C = ends). [ ]: non-standard residue; d: D form. Phe(4-COOH) = N[C@@H](Cc1ccc(C(=O)O)cc1)C(=O)O

Chain of Growth factor receptor-bound protein 7 (Homo sapiens) (Q14451 whole entry): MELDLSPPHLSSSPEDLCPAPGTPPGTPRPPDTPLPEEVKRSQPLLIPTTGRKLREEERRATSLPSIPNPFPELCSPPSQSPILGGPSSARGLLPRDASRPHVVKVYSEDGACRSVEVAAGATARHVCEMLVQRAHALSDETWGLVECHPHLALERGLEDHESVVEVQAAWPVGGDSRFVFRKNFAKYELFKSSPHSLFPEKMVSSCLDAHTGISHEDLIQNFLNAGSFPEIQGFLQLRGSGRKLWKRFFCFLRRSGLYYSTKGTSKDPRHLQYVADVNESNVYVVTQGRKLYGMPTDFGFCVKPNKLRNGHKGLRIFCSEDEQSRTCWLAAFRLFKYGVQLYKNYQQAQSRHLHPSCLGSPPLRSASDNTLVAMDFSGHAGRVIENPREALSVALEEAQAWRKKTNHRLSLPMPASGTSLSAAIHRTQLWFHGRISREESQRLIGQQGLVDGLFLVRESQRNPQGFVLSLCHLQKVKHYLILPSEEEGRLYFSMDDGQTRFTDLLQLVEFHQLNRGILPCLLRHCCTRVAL
Chain of Growth factor receptor-bound protein 2 (Homo sapiens) (P62993 whole entry, looked up, the tested form may be a part): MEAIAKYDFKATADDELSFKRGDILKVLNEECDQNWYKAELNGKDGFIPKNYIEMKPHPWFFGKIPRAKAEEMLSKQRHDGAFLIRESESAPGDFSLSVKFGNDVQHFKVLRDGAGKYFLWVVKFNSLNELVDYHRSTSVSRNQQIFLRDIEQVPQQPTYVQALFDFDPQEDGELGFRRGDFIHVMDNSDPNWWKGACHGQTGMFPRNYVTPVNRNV

Consider `CC[C@H](C)[C@H](NC(=O)[C@H](CCCCN)NC(=O)[C@@H](NC(=O)[C@H](CCC(N)=O)NC(=O)[C@H](CCCNC(=N)N)NC(=O)[C@@H]1CSCC(=O)N[C@H]2CCCCNC(=O)CC[C@H](NC(=O)[C@H](CC(N)=O)NC(=O)[C@H](CC(=O)O)NC(=O)[C@H](Cc3ccc(O)cc3)NC(=O)CNC(=O)[C@H](CCC(=O)O)NC(=O)[C@H](Cc3ccccc3)NC2=O)C(=O)N1)[C@@H](C)CC)C(=O)N[C@@H](Cc1c[nH]c2ccccc12)C(=O)N[C@@H](Cc1ccccc1)C(=O)N[C@@H](CCC(N)=O)C(=O)N[C@@H](CC(N)=O)C(=O)N[C@@H](CCCNC(=N)N)C(=O)N[C@@H](CCCNC(=N)N)C(=O)N[C@@H](CCSC)C(=O)N[C@@H](CCCCN)C(=O)N[C@@H](Cc1c[nH]c2ccccc12)C(=O)N[C@@H](CCCCN)C(=O)N[C@@H](CCCCN)C(N)=O` ({CH2CO}-KFEGYDNECRQIKIWFQNRRMKWKK-NH2; lactam 1-8; thioether N-9), for which the inhibition entry in [1], in assay [2], in [3], in assay [4], in [5] and in [6] was “Active” each time.

As to `NC(=O)C[C@@H]1NC(=O)[C@H](CC(=O)O)NC(=O)[C@H](Cc2ccc(O)cc2)NC(=O)CNC(=O)[C@H](CCC(=O)O)NC(=O)[C@H](Cc2ccccc2)NC(=O)[C@@H]2CCC(=O)NCCCC[C@H](NC1=O)C(=O)N[C@H](C(N)=O)CSCC(=O)N2` ({CH2CO}-EFEGYDNKC-NH2; lactam 1-8; thioether N-9), the outcome in assay [7], in assay [8], in [9] and in [10] was inactive.

Consider `NC(=O)C[C@@H]1NC(=O)[C@H](CC(=O)O)NC(=O)[C@H](Cc2ccc(O)cc2)NC(=O)CNC(=O)[C@H](CCC(=O)O)NC(=O)[C@H](Cc2ccccc2)NC(=O)[C@@H]2COCc3cn(nn3)CCC[C@H](NC1=O)C(=O)N[C@H](C(N)=O)CSCC(=O)N2`, for which the result in assay [7], in [8], in assay [9] and in assay [10] was inactive.

As for `CC[C@H](C)[C@H](NC(=O)[C@H](CCCCN)NC(=O)[C@@H](NC(=O)[C@H](CCC(N)=O)NC(=O)[C@H](CCCNC(=N)N)NC(=O)[C@@H]1CSCC(=O)N[C@H]2CCCCNC(=O)CC[C@H](NC(=O)[C@H](CC(N)=O)NC(=O)[C@H](CC(=O)O)NC(=O)[C@H](Cc3ccc(C(=O)O)cc3)NC(=O)CNC(=O)[C@H](CCC(=O)O)NC(=O)[C@H](Cc3ccccc3)NC2=O)C(=O)N1)[C@@H](C)CC)C(=O)N[C@@H](Cc1c[nH]c2ccccc12)C(=O)N[C@@H](Cc1ccccc1)C(=O)N[C@@H](CCC(N)=O)C(=O)N[C@@H](CC(N)=O)C(=O)N[C@@H](CCCNC(=N)N)C(=O)N[C@@H](CCCNC(=N)N)C(=O)N[C@@H](CCSC)C(=O)N[C@@H](CCCCN)C(=O)N[C@@H](Cc1c[nH]c2ccccc12)C(=O)N[C@@H](CCCCN)C(=O)N[C@@H](CCCCN)C(N)=O` ({CH2CO}-KFEG[Phe(4-COOH)]DNECRQIKIWFQNRRMKWKK-NH2; lactam 1-8; thioether N-9), the inhibition entry in assay [1], in assay [2], in assay [3], in assay [4], in assay [5] and in [6] was “Active” in each case.

For `CC[C@H](C)[C@H](NC(=O)[C@H](CCCCN)NC(=O)[C@@H](NC(=O)[C@H](CCC(N)=O)NC(=O)[C@H](CCCNC(=N)N)NC(=O)[C@@H]1CSCC(=O)N[C@@H](Cc2c[nH]c3ccccc23)C(=O)N[C@@H](Cc2ccccc2)C(=O)N[C@@H](CCC(=O)O)C(=O)NCC(=O)N[C@@H](Cc2ccc(C(=O)O)cc2)C(=O)N[C@@H](CC(=O)O)C(=O)N[C@@H](CC(N)=O)C(=O)N[C@@H]([C@@H](C)O)C(=O)N[C@@H](Cc2ccccc2)C(=O)N2CCC[C@H]2C(=O)N1)[C@@H](C)CC)C(=O)N[C@@H](Cc1c[nH]c2ccccc12)C(=O)N[C@@H](Cc1ccccc1)C(=O)N[C@@H](CCC(N)=O)C(=O)N[C@@H](CC(N)=O)C(=O)N[C@@H](CCCNC(=N)N)C(=O)N[C@@H](CCCNC(=N)N)C(=O)N[C@@H](CCSC)C(=O)N[C@@H](CCCCN)C(=O)N[C@@H](Cc1c[nH]c2ccccc12)C(=O)N[C@@H](CCCCN)C(=O)N[C@@H](CCCCN)C(N)=O`, the inhibition entry in [1], in assay [2], in [3], in assay [4], in [5] and in assay [6] was “Active” in each case.

With `NC(=O)C[C@@H]1NC(=O)[C@H](CC(=O)O)NC(=O)[C@H](Cc2ccc(O)cc2)NC(=O)CNC(=O)[C@H](CCC(=O)O)NC(=O)[C@H](Cc2ccccc2)NC(=O)[C@@H]2CCCCNC(=O)CC[C@H](NC1=O)C(=O)N[C@H](C(N)=O)CSCC(=O)N2` ({CH2CO}-KFEGYDNEC-NH2; lactam 1-8; thioether N-9), the outcome in [7], in assay [8], in assay [9] and in assay [10] was inactive.
